Where two headings read alike, the source gives them in different places.
Experiments:
HT-29 cells [1] = assay: HT-29 tumor cell growth inhibition, SRB assay; assay type: cell-based, human; design: Growth Inhibition: key to the marks not given beside the values; settings: for Growth inhibitory activity, % Inhibition at 100 μM / inhibition at 100 µM: 100 μM single dose; for IC50 / inhibition at 100 µM: Homo sapiens; for IC50: SRB assay; for inhibition at 100 µM: HT-29, read-out: Growth inhibitory activity, % Inhibition at 100 μM
COX = COX inhibition; assay type: biochemical
[2] = test system: PDE peak B (novel cGMP-specific PDE); assay: cGMP hydrolysis by PDE peak B isolated from SW-480 cells; assay type: biochemical, human; settings: 0.25 μM 3H-cGMP
HT-29 cells [3] = assay: Apoptosis by DNA fragmentation assay in HT-29 cells; assay type: cell-based, human
cGMP-PDE = test system: T1, cGMP-PDE; assay: cGMP-PDE inhibition assay, enzyme from HT-29 tumor cells; assay type: biochemical, human; settings: 100 μM
T1 construct: other: 10 μM; other: 100 μM; other: enzyme from HT-29 cells; other: 20 μM

PDE peak A (PDE5) = target: T2, PDE peak A (PDE5) (Homo sapiens, UniProt O76074); assay: cGMP hydrolysis by PDE peak A isolated from SW-480 cells; assay type: biochemical
T2 construct: SW-480 cells are collected and homogenized; endogenous in cells; host or cells: SW-480 human colon adenocarcinoma cells; supernatant of homogenate fractionated on DEAE-Trisacryl M

HT-29, Colon = assay: Growth inhibition of various cell lines (Table 5); assay type: cell-based; settings: Homo sapiens
DU-145 = assay: Growth inhibition of various cell lines (Table 5); assay type: cell-based; settings: Homo sapiens
Procedure: (§1) To show the effectiveness of cGMP-specific PDE inhibition on various forms of neoplasia, compounds were tested on numerous cell lines. […] The IC50 values were determined by the SRB assay. […] Therefore, compounds selected for cGMP-specific PDE inhibition in combination with a pyrimidine analog should be useful for treating neoplasia, in particular breast, colorectal and pancreatic cancers.

HCT-15 = assay: Growth inhibition of various cell lines (Table 5); assay type: cell-based; settings: Homo sapiens
Procedure: as §1

MDA-MB-435 = assay: Growth inhibition of various cell lines (Table 5); assay type: cell-based; settings: Homo sapiens
Procedure: as §1

[4] = test system: premalignant lesions in mouse mammary gland organ culture; assay: Mammary gland organ culture model; assay type: cell-based; settings: for Mammary Gland Organ Culture: activity profile; for inhibition of premalignant lesions: mammary gland organ culture; on mammary gland organ culture: key: −: Not active; +: Slightly active; ++: Moderately active; +++: Strongly active; ++++: Highly active
Procedure: For example, female BALB/c mice can be treated with a combination of estradiol and progesterone daily, in order to prime the glands to be responsive to hormones in vitro. The animals are sacrificed and thoracic mammary glands are excised aseptically and incubated for ten days in growth media supplemented with insulin, prolactin, hydrocortisone, and aldosterone. DMBA (7,12-dimethylbenz(a)anthracene) is added to medium to induce the formation of premalignant lesions. Fully developed glands are then deprived of prolactin, hydrocortisone, and aldosterone, resulting in the regression of the glands but not the premalignant lesions.
The test compound is dissolved in DMSO and added to the culture media for the duration of the culture period. At the end of the culture period, the glands are fixed in 10% formalin, stained with alum carmine, and mounted on glass slides. The extent of the area occupied by the mammary lesions can be quantitated by projecting an image of the gland onto a digitation pad. The area covered by the gland is traced on the pad and considered as 100% of the area. The space covered by each of the unregressed structures is also outlined on the digitization pad and quantitated by the computer.
The incidence of forming mammary lesions is the ratio of the glands with mammary lesions to […]. The incidence of mammary lesions in test compound treated glands is compared with that of the untreated glands.
Mammary gland organ culture experiments were performed as previously described (Mehta and Moon, Cancer Research, 46: 5832-5835, 1986). […] The data support the hypothesis that cyclooxygenase inhibition is not necessary for the anti-neoplastic properties of desired compounds.

A-427, Lung = assay: Growth inhibition of various cell lines (Table 5); assay type: cell-based; settings: Homo sapiens
Procedure: as §1

[5] = test system: Human Prostate Carcinoma PC3; assay: Growth inhibition of various cell lines (Table 5); assay type: cell-based
Procedure: as §1

[6] = Side effects of exisulind on administration; assay type: in vivo
Source text: This effect is reversible, and liver enzymes return to normal levels when the administered dose of exisulind returns to the traditionally recommended level or when treatment is discontinued. The most serious side effect of pyrimidine analogs, on the other hand, is bone marrow suppression.

HT-29 cells [7] = assay: Apoptosis and necrosis by morphology (acridine orange/ethidium bromide) in HT-29 cells; assay type: cell-based, human
Source text: Following treatment with a test compound, cultures can be assayed for apoptosis and necrosis by fluorescent microscopy following labeling with acridine orange and ethidium bromide. The method for measuring apoptotic cell number has previously been described by Duke & Cohen, “Morphological And Biochemical Assays Of Apoptosis,” Current Protocols In Immunology, Coligan et al., eds., 3.17.1-3.17.16 (1992, which is incorporated herein by reference).
For example, floating and attached cells can be collected, and aliquots of cells can be centrifuged. The cell pellet can then be resuspended in media and a dye mixture containing acridine orange and ethidium bromide. The mixture can then be examined microscopically for morphological features of apoptosis.
Reference compounds and test compounds were analyzed for their cGMP-specific PDE inhibitory activity in accordance with the protocols for the assay, supra. […] Apoptotic and necrotic cell death was determined as previously described (Duke and Cohen, In: Current Protocols in Immunology, 3.17.1-3.17.16, New York, John Wiley and Sons, 1992). […] All data were collected from the same experiment.
The apoptosis inducing activity for a series of phosphodiesterase inhibitors was determined. HT-29 cell were treated for 6 days with various inhibitors of phosphodiesterase. Apoptosis and necrosis were determined morphologically after acridine orange and ethidium bromide labeling in accordance with the assay described, supra.

HT-29 cells [8] = assay: cAMP levels in cultured HT-29 cells by radioimmunoassay; assay type: cell-based, human; settings: HT-29 cells treated 30 minutes
Source text: It has been observed that a compound which is useful in the practice of this invention (i.e., one that selectively induces apoptosis in neoplastic cells, but not substantially in normal cells) follows a time course consistent with cGMP-specific PDE inhibition. […] The intracellular targets of these drug actions are being studied further, but current data support the concept that the initial rise in cGMP content and the subsequent fall in cAMP content precede apoptosis in neoplastic cells exposed to test compounds useful in this invention. To determine the cyclic AMP content in cell extracts, radioimmunoassay techniques similar to those described above for cGMP are used.

HT-29 cells [9] = assay: cGMP levels in cultured HT-29 cells by radioimmunoassay; assay type: cell-based, human; settings: HT-29 cells treated 30 minutes
HT-29 cells [10] = assay: HT-29 growth inhibition by counting viable cells after trypan blue staining; assay type: cell-based, human; settings: 120 μM, time course
Procedure: Growth inhibition (FIG. 9A, top) was measured by counting viable cells after trypan blue staining. Apoptosis (FIG. 9B, bottom) was measured by morphological determination following staining with acridine orange and ethidium bromide as described previously (Duke and Cohen, In: Current Protocols in Immunology, 3.17.1-3.17.16, New York, John Wiley and Sons, 1992). […] All data were collected from the same experiment.

MCF7/S, Breast = assay: Growth inhibition of various cell lines (Table 5); assay type: cell-based; settings: Homo sapiens, MCF7S
Procedure: as §1

[11] = cGMP hydrolysis, 0.25 μM 3H-cGMP
[12] = 144 h, HT-29, 6 days, PDE inhibitors, read-out: Growth inhibition (IC50)

CC(=O)NC(CSC12CC(=O)OC1(C)/C(=C/c1ccc(S(C)(=O)=O)cc1)c1ccc(F)cc12)C(=O)O (racemic) [D, rac-(E)-1-(butan-1′,4′-olido)-[3′,4′:1,2]-6-fluoro-2-methyl-3-(p-methylsulfonylbenzylidene)-1S-indanyl-N-acetylcysteine]
Growth inhibitory activity, % Inhibition at 100 μM (HT-29 cells [1]): 78% | COX Inhibition (COX; activity profile): −

CCCCCC[C@@H]([C@@H](C)O)n1cnc2c(N)ncnc21 (racemic) [EHNA, reference compound]
IC50 [2]: 3.7 µM | Apoptosis inducing activity, Fold induction at 100 μM (HT-29 cells [3]): <2.0 fold

CC1=C(CC(=O)O)c2cc(F)ccc2/C1=C\c1ccc(Cl)cc1 [C, (Z)-5-Fluoro-2-methyl-1-(p-chlorobenzylidene)-3-acetic acid]
cGMP PDE % Inhibition at 100 μM (cGMP-PDE): <25% | Growth inhibitory activity, % Inhibition at 100 μM (HT-29 cells [1]): 80%

O=C([O-])C1CCN(c2nc(NCc3ccc4c(c3)OCO4)c3cc(Cl)ccc3n2)CC1.[Na+] [Compound E4021, reference compound]
Growth inhibitory activity, % Inhibition at 100 μM (HT-29 cells [1]): <50%

COc1cc(/C=C2/C(C)=C(CC(=O)NCc3ccccc3)c3cc(F)ccc32)cc(OC)c1OC [Compound E, (Z)-5-Fluoro-2-methyl-1-(3,4,5-trimethoxybenzylidene)-3-indenylacetamide, N-benzyl]
IC50 (PDE peak A (PDE5); [11]): 0.38 µM | IC50 [2]: 0.37 µM | cGMP PDE % Inhibition at 100 μM (cGMP-PDE): 75% | IC50 (HT-29 cells [1]; HT-29, 144 h, six days, read-out: IC50 for growth inhibition of HT-29 cells): 0.04 µM | inhibition at 100 µM (HT-29 cells [1]): 62% | Growth Inhibition (HT-29 cells [1]; activity profile): ++++ | IC50 (HT-29, Colon): 0.1 µM | IC50 (DU-145): 0.1 µM | IC50 (HCT-15): 0.6 µM | IC50 (MDA-MB-435): 0.04 µM | EC50 (HT-29 cells [3]; Homo sapiens, HT-29, 48 hours, DNA fragmentation, read-out: EC50 for apoptosis induction): 0.05 µM | Mammary Gland Organ Culture [4]: ++++ | COX Inhibition (COX; 100 μM): did not inhibit COX | COX Inhibition (COX; activity profile): −

CC1=C(CC(=O)O)c2cc(F)ccc2/C1=C\c1ccc(S(C)(=O)=O)cc1 [Exisulind, (Z)-5-fluoro-2-methyl-1-[[4-(methylsulfonyl)phenyl]methylene]indene-3-yl acetic acid]
IC50 (HT-29, Colon): 120 µM | IC50 (A-427, Lung): 130 µM | IC50 [5]: 82 µM | inhibition of premalignant lesions [4]: effectively inhibit the formation of premalignant lesions | COX Inhibition (COX; activity profile): − | side effects at recommended dose ([6]; 300-400 mg/day): no significant side effects | liver enzymes at doses higher than recommended ([6]; doses higher than the recommended therapeutic levels, reversible): elevated levels of liver enzymes

CC1=C(CC(=O)N(C2CCCCC2)C2CCCCC2)c2cc(F)ccc2/C1=C\c1ccc(S(C)(=O)=O)cc1 [F, (Z)-5-Fluoro-2-methyl-1-(p-methylsulfonylbenzylidene)-3-indenylacetamide, N,N′-dicyclohexyl]
COX Inhibition (COX; activity profile): −

CC1(C)C(=O)Nc2ccc(C3=NNC(=O)CC3)cc21 [Indolidan]
IC50 (PDE peak A (PDE5); [11]): 31 µM | IC50 [2]: > 100 µM

Clc1cccc(Nc2nnc(-c3ccccc3)c3ccccc23)c1 [MY5445, reference compound]
COX Inhibition (COX; activity profile): ++++

Cc1[nH]c(=O)c(C#N)cc1-c1ccncc1 [Milrinone]
IC50 (HT-29 cells [1]; [12]): > 200 µM | % Apoptosis (HT-29 cells [7]; HT-29, 6 days, morphology): 18% | % Necrosis (HT-29 cells [7]; HT-29, 6 days, morphology): 0%

COc1ccc(C2CNC(=O)C2)cc1OC1CCCC1 (stereo not shown) [Rolipram]
IC50 [2]: > 100 µM | effect on cAMP levels (HT-29 cells [8]): increased cAMP levels

CCCc1nn(C)c2c(=O)[nH]c(-c3cc(S(=O)(=O)N4CCN(C)CC4)ccc3OCC)nc12 [Sildenafil, reference compound]
inhibition at 100 µM (HT-29 cells [1]): < 50%

CSc1ccc(/C=C2/C(C)=C(CC(=O)O)c3cc(F)ccc32)cc1 [Sulindac sulfide]
IC50 (PDE peak A (PDE5)): 50 µM | increase of cGMP levels (HT-29 cells [9]): greater than 50% | growth inhibition, viable cell count (HT-29 cells [10]): capable of inhibiting tumor cell growth | IC50 (MCF7/S, Breast): 30 µM | apoptosis by morphology (HT-29 cells [7]; 120 μM, time course): increase in apoptosis | Mammary Gland Organ Culture [4]: − | inhibition of premalignant lesions [4]: inactive | COX Inhibition (COX; activity profile): ++++

CCOC(=O)C1=C[C@]2(CC)CCCN3CCc4c(n1c1ccccc41)[C@@H]32 [Vinpocetine]
IC50 (PDE peak A (PDE5); [11]): > 100 µM | IC50 [2]: > 100 µM

CCCOc1ccccc1-c1nc2nn[nH]c2c(=O)[nH]1 [Zaprinast, reference compound]
IC50 (HT-29 cells [1]; [12]): > 100 µM | inhibition at 100 µM (HT-29 cells [1]): < 50%

CC1=C(CC(=O)O)c2cc(F)ccc2/C1=C/c1ccc([S+](C)[O-])cc1 (stereo not shown) [sulindac sulfoxide]
inhibition of premalignant lesions [4]: effectively inhibit the formation of premalignant lesions

rac-(E)-1-(butan-1′,4′-olido)-[3′,4′:1,2]-6-fluoro-2-methyl-3-(p-methylsulfonylbenzylidene)-1 S-indanyl-glutathione)
COX Inhibition (COX; activity profile): −

rac-threo-(E)-1-(N,N′-diethylaminoethanethio)-1-(butan-1′,4′-olido)-[3′,4′:1,2′]-6-fluoro-2-methyl-3-(p-methylsulfonylbenzylidene)-indan
cGMP PDE % Inhibition at 100 μM (cGMP-PDE): <25% | Growth inhibitory activity, % Inhibition at 100 μM (HT-29 cells [1]): 68% | Apoptosis inducing activity, Fold induction at 100 μM (HT-29 cells [3]): <2.0 fold | Mammary Gland Organ Culture [4]: ++ | COX Inhibition (COX; activity profile): −

ribo-(E)-1-Triazolo-[2′,3′:1″,3″]-1-(butan-1′,4′-olido)-[3′,4′:1,2]-6-fluoro-2-methyl-3-(p-methylsulfonylbenzylidene)-indan [G]
COX Inhibition (COX; activity profile): −

— US20020022586A1, “Method for treating a patient with neoplasia by treatment with a pyrimidine analog” (priority 1998, published 2002)
